According to patent US20250136606A1, “MODULATORS OF TRPML, THEIR COMPOSITIONS AND METHODS OF USE” (Caraway Therapeutics, Inc., priority 2021, published 2025):
Read-outs that look alike come from different tables or passages of the source.

Tests used:
Format in all cases: cell-based
[1] = target: T1, TRPML3 (Homo sapiens, UniProt Q8TDD5); experiment: Fluorescent TRPML3 assay (performed as for TRPML1, substituting the TRPML3 subtype)
T1 construct: expressed in transfected cells
T1 sequence (Q8TDD5 1-553): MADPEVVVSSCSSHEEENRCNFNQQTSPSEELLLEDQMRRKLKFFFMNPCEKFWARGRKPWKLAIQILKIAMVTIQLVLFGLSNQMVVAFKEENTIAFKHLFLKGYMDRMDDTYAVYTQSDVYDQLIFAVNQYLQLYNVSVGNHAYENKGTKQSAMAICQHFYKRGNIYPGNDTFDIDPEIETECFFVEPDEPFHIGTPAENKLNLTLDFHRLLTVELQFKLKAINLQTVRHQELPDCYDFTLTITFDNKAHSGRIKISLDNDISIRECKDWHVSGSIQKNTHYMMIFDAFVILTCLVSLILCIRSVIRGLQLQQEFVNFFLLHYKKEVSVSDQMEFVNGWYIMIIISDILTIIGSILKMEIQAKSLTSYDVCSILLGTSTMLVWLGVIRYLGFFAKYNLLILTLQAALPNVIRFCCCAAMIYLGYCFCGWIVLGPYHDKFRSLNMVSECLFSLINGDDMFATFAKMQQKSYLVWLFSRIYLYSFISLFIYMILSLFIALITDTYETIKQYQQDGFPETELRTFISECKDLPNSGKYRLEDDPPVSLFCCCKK
Outline: (§1)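 Agonist activity is scored as percent of plate controls from Fluo4 fluorescence after dye-loaded, doxycycline-induced HEK-293 Trex cells meet compound in high-calcium (10 mM) Ringer's. Compounds run in half-log dilutions from 20 micromolar final, in triplicate.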

[2] = target: T2, TRPML2 (Homo sapiens, UniProt Q8IZK6); experiment: Fluorescent TRPML2 assay (performed as for TRPML1, substituting the TRPML2 subtype)
T2 construct: expressed in transfected cells
T2 sequence (Q8IZK6 1-566): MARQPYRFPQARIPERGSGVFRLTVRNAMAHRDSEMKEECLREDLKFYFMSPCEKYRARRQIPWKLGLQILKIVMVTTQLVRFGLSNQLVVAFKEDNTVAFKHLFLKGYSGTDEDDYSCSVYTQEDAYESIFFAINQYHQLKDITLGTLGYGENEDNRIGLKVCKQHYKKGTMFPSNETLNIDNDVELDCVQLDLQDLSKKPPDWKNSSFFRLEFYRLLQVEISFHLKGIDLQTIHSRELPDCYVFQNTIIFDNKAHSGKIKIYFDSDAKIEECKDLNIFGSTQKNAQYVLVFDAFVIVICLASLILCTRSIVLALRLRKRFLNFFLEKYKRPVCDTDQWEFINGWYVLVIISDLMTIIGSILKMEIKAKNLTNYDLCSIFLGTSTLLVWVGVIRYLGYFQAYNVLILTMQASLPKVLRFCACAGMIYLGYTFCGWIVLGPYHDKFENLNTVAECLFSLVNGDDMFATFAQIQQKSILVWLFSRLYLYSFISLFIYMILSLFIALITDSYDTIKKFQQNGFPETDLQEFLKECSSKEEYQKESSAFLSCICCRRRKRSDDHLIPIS
Outline: as §1

[3] = target: TRPML1 (Homo sapiens, UniProt Q9GZU1); experiment: Fluorescent TRPML1 assay (Fluo4-AM calcium fluorescence in doxycycline-induced HEK-293 Trex cells)
Sequence of TRPML1 (Q9GZU1 whole entry L15A/L16A/L577A/L578A, form open): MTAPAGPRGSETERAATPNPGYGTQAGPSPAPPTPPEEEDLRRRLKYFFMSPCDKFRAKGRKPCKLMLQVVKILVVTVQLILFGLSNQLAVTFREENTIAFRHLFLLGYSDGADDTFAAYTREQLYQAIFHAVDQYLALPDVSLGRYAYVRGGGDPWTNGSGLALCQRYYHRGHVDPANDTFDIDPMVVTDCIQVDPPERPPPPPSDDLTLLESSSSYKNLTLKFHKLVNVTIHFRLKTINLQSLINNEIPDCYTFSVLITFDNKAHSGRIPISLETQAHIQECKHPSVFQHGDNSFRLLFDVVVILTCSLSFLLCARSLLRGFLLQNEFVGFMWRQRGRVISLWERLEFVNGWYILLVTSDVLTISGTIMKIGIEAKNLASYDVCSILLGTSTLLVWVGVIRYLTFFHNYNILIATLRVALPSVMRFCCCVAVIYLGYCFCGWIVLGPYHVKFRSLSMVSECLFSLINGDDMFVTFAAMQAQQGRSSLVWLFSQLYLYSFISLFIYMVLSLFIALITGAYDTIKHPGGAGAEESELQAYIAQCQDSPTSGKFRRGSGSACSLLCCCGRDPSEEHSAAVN
Outline: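 HEK-293 Trex cells stably expressing surface-directed mutant human TRPML1, induced with 0.5 µg/mL doxycycline overnight, were loaded with 1 µM Fluo4-AM and added to compound (6 nM–20 µM final, half-log steps, triplicate) in Ringer's with 10 mM calcium. Fluorescence ex 480/em 540; EC50 by non-linear regression versus plate controls.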

EC50 ([1]; fluorescent calcium assay) [nM] | EC50 ([2]; fluorescent calcium assay) [nM] | EC50 ([3]; fluorescent calcium assay) [nM] | EC50 [1] [nM] | EC50 [2] [nM] | EC50 [3] [nM] | Compound
100 to 500 | > 2000 | 500 to 2000 | – | – | – | C[C@H]1CN(C(=O)OC(C)(C)C)CCN1c1ncnc2c1c(C1CC1)cn2C1CCOCC1 [Compound 340, tert-butyl (S)-4-(5-cyclopropyl-7-(tetrahydro-2H-pyran-4-yl)-7H-pyrrolo[2,3-d]pyrimidin-4-yl)-3-methylpiperazine-1-carboxylate]
100 to 500 | 500 to 2000 | 100 to 500 | – | – | – | C[C@@H]1CN(c2ncnc3c2c(-c2cccnc2)cn3-c2cc(F)cc(F)c2)CCN1C(=O)OC(C)(C)C [Compound 214, tert-butyl (R)-4-(7-(3,5-difluorophenyl)-5-(pyridin-3-yl)-7H-pyrrolo[2,3-d]pyrimidin-4-yl)-2-methylpiperazine-1-carboxylate]
< 100 | 100 to 500 | < 100 | – | – | – | C[C@@H]1CN(c2ncnc3c2c(N2CCCC2)cn3-c2cccc(Cl)c2)CCN1C(=O)OC(C)(C)C [Compound 193, tert-butyl (R)-4-(7-(3-chlorophenyl)-5-(pyrrolidin-1-yl)-7H-pyrrolo[2,3-d]pyrimidin-4-yl)-2-methylpiperazine-1-carboxylate]
– | – | – | < 100 | 100 to 500 | < 100 | CC(C)c1cn(-c2cc(C#N)ccn2)c2ncnc(N3C[C@@H](C)N(C(=O)OC(C)(C)C)C[C@@H]3C)c12 [Compound 700, tert-butyl (2R,5S)-4-(7-(4-cyanopyridin-2-yl)-5-isopropyl-7H-pyrrolo[2,3-d]pyrimidin-4-yl)-2,5-dimethylpiperazine-1-carboxylate]
500 to 2000 | 100 to 500 | 100 to 500 | – | – | – | CCOC(=O)N1CCN(c2ncnc3c2c(C2CC2)cn3-c2ccc(Cl)cc2)[C@@H](C)C1 [Compound 112, ethyl (S)-4-(7-(4-chlorophenyl)-5-cyclopropyl-7H-pyrrolo[2,3-d]pyrimidin-4-yl)-3-methylpiperazine-1-carboxylate]
< 100 | 100 to 500 | < 100 | – | – | – | C[C@@H]1CN(c2ncnc3c2c(C2CC2)cn3-c2ccc(F)c(Cl)c2)CCN1C(=O)OC(C)(C)C [Compound 208, tert-butyl (R)-4-(7-(3-chloro-4-fluorophenyl)-5-cyclopropyl-7H-pyrrolo[2,3-d]pyrimidin-4-yl)-2-methylpiperazine-1-carboxylate]
– | – | – | 100 to 500 | 500 to 2000 | < 100 | C[C@@H]1CN(c2ncnc3c2c(C(C)(C)C)cn3-c2nccc(C#N)n2)[C@@H](C)CN1C(=O)OC(C)(C)C [Compound 532, tert-butyl (2R,5S)-4-(5-(tert-butyl)-7-(4-cyanopyrimidin-2-yl)-7H-pyrrolo[2,3-d]pyrimidin-4-yl)-2,5-dimethylpiperazine-1-carboxylate]
– | – | – | 100 to 500 | 100 to 500 | < 100 | Cc1cn(-c2cncc(C#N)c2)c2ncnc(N3C[C@@H](C)N(C(=O)OC(C)(C)C)C[C@@H]3C)c12 [Compound 675, tert-butyl (2R,5S)-4-(7-(5-cyanopyridin-3-yl)-5-methyl-7H-pyrrolo[2,3-d]pyrimidin-4-yl)-2,5-dimethylpiperazine-1-carboxylate]
– | – | – | 100 to 500 | 100 to 500 | < 100 | C[C@@H]1CN(c2ncnc3c2c(N2CCC2)cn3-c2cccc(F)c2)[C@@H](C)CN1C(=O)OC(C)(C)C [Compound 635, tert-butyl (2R,5S)-4-(5-(azetidin-1-yl)-7-(3-fluorophenyl)-7H-pyrrolo[2,3-d]pyrimidin-4-yl)-2,5-dimethylpiperazine-1-carboxylate]
100 to 500 | 500 to 2000 | 100 to 500 | – | – | – | Cc1nccnc1-c1cn(-c2ccc(Cl)cc2)c2ncnc(N3C[C@@H](C)N(C(=O)OC(C)(C)C)C[C@@H]3C)c12 [Compound 184, tert-butyl (2R,5S)-4-(7-(4-chlorophenyl)-5-(3-methylpyrazin-2-yl)-7H-pyrrolo[2,3-d]pyrimidin-4-yl)-2,5-dimethylpiperazine-1-carboxylate]
– | – | – | < 100 | < 100 | < 100 | Cc1cn(-c2cc(C(F)(F)F)ccn2)c2ncnc(N3CCN(C(=O)OC(C)(C)C)C[C@@H]3C)c12 [Compound 682, tert-butyl (S)-3-methyl-4-(5-methyl-7-(4-(trifluoromethyl)pyridin-2-yl)-7H-pyrrolo[2,3-d]pyrimidin-4-yl)piperazine-1-carboxylate]
< 100 | < 100 | < 100 | – | – | – | CC(C)OC(=O)N1CCN(c2ncnc3c2c(-c2ccccc2F)cn3-c2cc(C#N)ccn2)[C@@H](C)C1 [Compound 347, isopropyl (S)-4-(7-(4-cyanopyridin-2-yl)-5-(2-fluorophenyl)-7H-pyrrolo[2,3-d]pyrimidin-4-yl)-3-methylpiperazine-1-carboxylate]
< 100 | 500 to 2000 | < 100 | – | – | – | C[C@H]1CN(C(=O)OC(C)(C)C(F)(F)F)CCN1c1ncnc2c1c(-c1cncnc1)cn2-c1cc(C#N)ccn1 [Compound 335]
< 100 | < 100 | < 100 | – | – | – | C[C@H]1CN(C(=O)OC(C)(C)C)CCN1c1ncnc2c1c(N1CCCC1)cn2-c1cccc(OC(F)(F)F)c1 [Compound 331, tert-butyl (S)-3-methyl-4-(5-(pyrrolidin-1-yl)-7-(3-(trifluoromethoxy)phenyl)-7H-pyrrolo[2,3-d]pyrimidin-4-yl)piperazine-1-carboxylate]
– | – | – | 100 to 500 | 100 to 500 | < 100 | Cc1cn(-c2cncc(F)c2)c2ncnc(N3CCN(C(=O)OC(C)(C)C)C[C@@H]3C)c12 [Compound 689, tert-butyl (S)-4-(7-(5-fluoropyridin-3-yl)-5-methyl-7H-pyrrolo[2,3-d]pyrimidin-4-yl)-3-methylpiperazine-1-carboxylate]
100 to 500 | > 2000 | 100 to 500 | – | – | – | CC(C)OC(=O)N1C[C@H](C)N(c2ncnc3c2c(-c2ccccc2F)cn3-c2cnn(C)c2)C[C@H]1C [Compound 252, isopropyl (2R,5S)-4-(5-(2-fluorophenyl)-7-(1-methyl-1H-pyrazol-4-yl)-7H-pyrrolo[2,3-d]pyrimidin-4-yl)-2,5-dimethylpiperazine-1-carboxylate]
– | – | – | 100 to 500 | > 2000 | 100 to 500 | C[C@@H]1CN(c2ncnc3c2c(C(F)(F)F)cn3-c2ccccn2)[C@@H](C)CN1C(=O)OC(C)(C)C [Compound 663, tert-butyl (2R,5S)-2,5-dimethyl-4-(7-(pyridin-2-yl)-5-(trifluoromethyl)-7H-pyrrolo[2,3-d]pyrimidin-4-yl)piperazine-1-carboxylate]
100 to 500 | 500 to 2000 | < 100 | – | – | – | C[C@@H]1CN(c2ncnc3c2c(N2CCC[C@@H]2C)cn3-c2cccc(Cl)c2)CCN1C(=O)OC(C)(C)C [Compound 262, tert-butyl (R)-4-(7-(3-chlorophenyl)-5-((S)-2-methylpyrrolidin-1-yl)-7H-pyrrolo[2,3-d]pyrimidin-4-yl)-2-methylpiperazine-1-carboxylate]
< 100 | 100 to 500 | 100 to 500 | – | – | – | C[C@@H]1CN(C(=O)OC(C)(C)C)CCN1c1ncnc2c1c(C1CC1)cn2-c1ccc(Cl)cc1 [Compound 147, tert-butyl (R)-4-(7-(4-chlorophenyl)-5-cyclopropyl-7H-pyrrolo[2,3-d]pyrimidin-4-yl)-3-methylpiperazine-1-carboxylate]
100 to 500 | 500 to 2000 | 500 to 2000 | – | – | – | C[C@@H]1CN(C(=O)OC(C)(C)C)CCN1c1ncnc2c1c(C1=CCOCC1)cn2-c1cccc(F)c1 [Compound 471, tert-butyl (R)-4-(5-(3,6-dihydro-2H-pyran-4-yl)-7-(3-fluorophenyl)-7H-pyrrolo[2,3-d]pyrimidin-4-yl)-3-methylpiperazine-1-carboxylate]
